≈ marks a conversion by molar mass, not a printed value.
Columns and labels:
MRSA = test: Time-kill curves, MRSA at 4x MIC; format: cell-based, Staphylococcus aureus; details: 1-24 h
Description: Time-kill curves were determined based on the CLSI guidelines ([Clinical and Laboratory Standards Institute [CLSI], 1999]). Single colonies grown overnight at 37°C were resuspended in Ca^2+-adjusted (0.05 mg/mL) Mueller Hinton broth up to an optical density (625 nm) of 0.08–00.10 (corresponding to the 0.5 McFarland standard), followed by a 10-fold dilution in the same broth. Subsequently, 0.2 mL inoculum was added to 1.7 mL Ca^2+-adjusted (0.05 mg/mL) Mueller Hinton broth, followed by addition of the antibacterial compound (0.1 mL). The final concentration of the antibacterial compound corresponded to the 4x MIC value for that compound. For the antibiotic-free control, the compound was replaced by an equal volume of ultrapure water. The final inoculum concentration was approximately 10^6 CFU/mL. The cultures were continuously shaken at 37°C. After 1, 2, 4, 6, 8, and 24 h, a 0.1 mL aliquot was removed, serially diluted in cold 0.9% w/v NaCl and plated on BHI (VRE) and LB (MRSA) agar plates. Plates were incubated overnight at 37°C and colonies were counted.

VRE 39 = test: Resistance development, serial exposure to subinhibitory doses, 20 cycles; format: cell-based, Enterococcus faecalis; details: subinhibitory doses (MIC/2)
Description: To monitor resistance development upon exposure to subinhibitory doses, the initial MIC of Vanc-39, Vanc-42 and daptomycin was determined against VRE 39. A new MIC assay was prepared using 1,000-fold diluted cells grown at MIC/2 (occasionally MIC/4 if growth in MIC/2 was too limited). This was repeated for 20 cycles and changes in MIC were monitored.

VRE39 = test: MIC in the absence and presence of 10 µM vancomycin (vanA induction); format: cell-based, Enterococcus faecalis
Description: The minimum inhibitory concentration (MIC) was determined using the broth microdilution method according to the antimicrobial susceptibility testing standards of the clinical and laboratory standards institute ([Clinical and Laboratory Standards Institute [CLSI], 2012]). Ultrapure water and non-inoculated broth were used as controls. In one case, a final concentration of 10 μM vancomycin was included with the vancomycin analog or control antibiotic.

E. coli XL-1 blue MRF' = test: MIC, broth microdilution, E. coli XL-1 blue MRF'; format: cell-based, Escherichia coli
In short: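 CLSI broth microdilution; water and uninoculated-broth controls; one arm supplemented with vancomycin, final 10 μM, given with analogue or control antibiotic.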

B. subtilis PSB3 = test: MIC, broth microdilution, B. subtilis PSB3; format: cell-based, Bacillus subtilis
In short: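 Controls (ultrapure water; broth not inoculated) were included throughout CLSI-compliant broth microdilution. One condition supplemented analogue or comparator with 10 μM vancomycin, final level.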

[1] = test system: lipid II with terminal D-Ala-D-Lac; design: method as in Arthur and Courvalin, 1993; Walsh et al., 1996; details: D-Ala-D-Lac versus D-Ala-D-Ala termini ref Arthur and Courvalin, 1993; Walsh et al., 1996; cited from earlier work

Structure (SMILES)	time-kill curve character (MRSA)	change in MIC upon serial exposure (VRE 39)	MIC (VRE39; VRE39, 0 µM vancomycin)	MIC (VRE39; VRE39, 10 μM vancomycin added)	further results
CCCCCCCCCC(=O)N[C@@H](Cc1c[nH]c2ccccc12)C(=O)N[C@H](CC(N)=O)C(=O)N[C@@H](CC(=O)O)C(=O)N[C@@H]1C(=O)NCC(=O)N[C@@H](CCCN)C(=O)N[C@@H](CC(=O)O)C(=O)N[C@H](C)C(=O)N[C@@H](CC(=O)O)C(=O)NCC(=O)N[C@H](CO)C(=O)N[C@@H]([C@H](C)CC(=O)O)C(=O)N[C@@H](CC(=O)c2ccccc2N)C(=O)O[C@@H]1C [Daptomycin, reference compound]	complete elimination after 24 h	eightfold higher concentration	–	–	–
CNC(CC(C)C)C(=O)NC1C(=O)NC(CC(N)=O)C(=O)NC2C(=O)NC3C(=O)NC(C(=O)NC(C(=O)NCCCNC(=O)c4ccc5cc(NS(=O)(=O)c6ccc(C(C)C)cc6)ccc5c4)c4cc(O)cc(O)c4-c4cc3ccc4O)C(O)c3ccc(c(Cl)c3)Oc3cc2cc(c3OC2OC(CO)C(O)C(O)C2OC2CC(C)(N)C(O)C(C)O2)Oc2ccc(cc2Cl)C1O (stereo not drawn) [Vanc-66]	–	–	3.13 µM	3.13 µM	–
CN[C@H](CC(C)C)C(=O)N[C@H]1C(=O)N[C@@H](CC(N)=O)C(=O)N[C@H]2C(=O)N[C@H]3C(=O)N[C@H](C(=O)N[C@H](C(=O)NCC(=O)Nc4ccc5c(c4)Cc4ccccc4-5)c4cc(O)cc(O)c4-c4cc3ccc4O)[C@H](O)c3ccc(c(Cl)c3)Oc3cc2cc(c3O[C@@H]2O[C@H](CO)[C@@H](O)[C@H](O)[C@H]2O[C@H]2C[C@](C)(N)[C@H](O)[C@H](C)O2)Oc2ccc(cc2Cl)[C@H]1O [Vanc-42]	–	oscillated between the original value and a twofold increase	1.56 µM	1.56 µM	–
CN(C)c1cc(NC(=O)CNC(C)(C)C)c(O)c2c1C[C@H]1C[C@H]3[C@H](N(C)C)C(O)=C(C(N)=O)C(=O)[C@@]3(O)C(O)=C1C2=O [Tigecycline, reference compound]	typical bacteriostatic time-kill curve	–	–	–	–
CCCCc1ccc(NC(=O)CNC(=O)[C@H]2NC(=O)[C@H]3NC(=O)[C@H](NC(=O)[C@@H]4NC(=O)[C@H](CC(N)=O)NC(=O)[C@H](NC(=O)[C@@H](CC(C)C)NC)[C@H](O)c5ccc(c(Cl)c5)Oc5cc4cc(c5O[C@@H]4O[C@H](CO)[C@@H](O)[C@H](O)[C@H]4O[C@H]4C[C@](C)(N)[C@H](O)[C@H](C)O4)Oc4ccc(cc4Cl)[C@H]3O)c3ccc(O)c(c3)-c3c(O)cc(O)cc32)cc1 [Vanc-39]	–	oscillated between the original value and a twofold increase	1.56 µM	6.25 µM	–
CN[C@H](CC(C)C)C(=O)N[C@H]1C(=O)N[C@@H](CC(N)=O)C(=O)N[C@H]2C(=O)N[C@H]3C(=O)N[C@H](C(=O)N[C@H](C(=O)O)c4cc(O)cc(O)c4-c4cc3ccc4O)[C@H](O)c3ccc(c(Cl)c3)Oc3cc2cc(c3O[C@@H]2O[C@H](CO)[C@@H](O)[C@H](O)[C@H]2O[C@H]2C[C@](C)(N)[C@H](O)[C@H](C)O2)Oc2ccc(cc2Cl)[C@H]1O [Vancomycin]	–	–	–	–	MICvanc/MICi (E. coli XL-1 blue MRF'; E. coli XL-1 blue MRF', ratio of MIC of vancomycin and MIC of analogue): 1; MIC (E. coli XL-1 blue MRF'; Escherichia coli): 100 µM (≈ 145 µg/mL); MIC (VRE39; Enterococcus faecalis, VRE39, 0 µM vancomycin): 800 µM; MIC (VRE39; Enterococcus faecalis, VRE39, 10 μM vancomycin added): 400 µM; MIC (B. subtilis PSB3; Bacillus subtilis): 0.39 µM (≈ 0.565 µg/mL); MICvanc/MICi (B. subtilis PSB3; ratio of MIC of vancomycin and MIC of analogue): 1; reduced affinity for vancomycin [1]: 1000 fold
CNC(CC(C)C)C(=O)NC1C(=O)NC(CC(N)=O)C(=O)NC2C(=O)NC3C(=O)NC(C(=O)NC(C(=O)NCCCNC(=O)c4cc5ccccc5[nH]4)c4cc(O)cc(O)c4-c4cc3ccc4O)C(O)c3ccc(c(Cl)c3)Oc3cc2cc(c3OC2OC(CO)C(O)C(O)C2OC2CC(C)(N)C(O)C(C)O2)Oc2ccc(cc2Cl)C1O (stereo not drawn) [Vanc-24]	quickest onset of killing	–	3.13 µM	6.25 µM	–

Reference: article PMC6001238, “Iterative Chemical Engineering of Vancomycin Leads to Novel Vancomycin Analogs With a High in Vitro Therapeutic Index” (Frontiers in Microbiology, 2018)
